Reference: ChEMBL document CHEMBL4177700, “Scutellarin inhibits Hela cell growth and glycolysis by inhibiting the activity of pyruvate kinase M2” (Bioorg Med Chem Lett, 2017)
pIC50: −log10 of the molar value. Activity calls are given as the source filed them. The rule behind the calls is not given here.

Assays:
Pyruvate kinase PKM [1] = biological target: T1, Pyruvate kinase PKM (Homo sapiens, UniProt P14618); experiment: Inhibition of recombinant human N-terminal His6/SUMO-tagged PKM1 expressed in Escherichia coli BL21 using PEP as substrate incubated for 30 mins in presence of ADP by spectrophotometric based LDH enzyme coupled assay
Target sequence in this assay (P14618 whole entry): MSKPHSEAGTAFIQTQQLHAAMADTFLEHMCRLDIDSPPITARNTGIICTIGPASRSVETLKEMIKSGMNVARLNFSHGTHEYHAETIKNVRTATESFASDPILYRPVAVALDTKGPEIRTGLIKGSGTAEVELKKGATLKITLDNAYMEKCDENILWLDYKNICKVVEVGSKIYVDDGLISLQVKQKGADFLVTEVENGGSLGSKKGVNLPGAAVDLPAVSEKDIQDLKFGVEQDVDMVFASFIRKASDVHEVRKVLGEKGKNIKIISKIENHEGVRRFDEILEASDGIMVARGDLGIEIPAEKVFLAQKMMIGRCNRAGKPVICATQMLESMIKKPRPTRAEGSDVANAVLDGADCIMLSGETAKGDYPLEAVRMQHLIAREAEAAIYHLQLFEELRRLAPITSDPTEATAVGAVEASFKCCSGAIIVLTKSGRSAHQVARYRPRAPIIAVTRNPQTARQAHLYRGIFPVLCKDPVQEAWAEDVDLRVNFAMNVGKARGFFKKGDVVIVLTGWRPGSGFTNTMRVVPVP

Pyruvate kinase PKM [2] = biological target: T1, Pyruvate kinase PKM; experiment: Inhibition of recombinant human N-terminal His6/SUMO-tagged PKM2 expressed in Escherichia coli BL21 using PEP as substrate incubated for 30 mins in presence of ADP by spectrophotometric based LDH enzyme coupled assay
Target sequence in this assay (P14618 whole entry): as above

Homo sapiens = species on record: Homo sapiens; experiment: Selectivity ratio of IC50 for recombinant human N-terminal His6/SUMO-tagged PKM1 expressed in Escherichia coli BL21 to IC50 for recombinant human N-terminal His6/SUMO-tagged PKM2 expressed in Escherichia coli BL21
Pyruvate kinase PKM [3] = biological target: T1, Pyruvate kinase PKM; experiment: Inhibition of PKM2 in human HeLa cells assessed as reduction in cellular glycolytic rate after 6 hrs; assay type: cell-based
Target sequence in this assay (P14618 2-531 limits assumed): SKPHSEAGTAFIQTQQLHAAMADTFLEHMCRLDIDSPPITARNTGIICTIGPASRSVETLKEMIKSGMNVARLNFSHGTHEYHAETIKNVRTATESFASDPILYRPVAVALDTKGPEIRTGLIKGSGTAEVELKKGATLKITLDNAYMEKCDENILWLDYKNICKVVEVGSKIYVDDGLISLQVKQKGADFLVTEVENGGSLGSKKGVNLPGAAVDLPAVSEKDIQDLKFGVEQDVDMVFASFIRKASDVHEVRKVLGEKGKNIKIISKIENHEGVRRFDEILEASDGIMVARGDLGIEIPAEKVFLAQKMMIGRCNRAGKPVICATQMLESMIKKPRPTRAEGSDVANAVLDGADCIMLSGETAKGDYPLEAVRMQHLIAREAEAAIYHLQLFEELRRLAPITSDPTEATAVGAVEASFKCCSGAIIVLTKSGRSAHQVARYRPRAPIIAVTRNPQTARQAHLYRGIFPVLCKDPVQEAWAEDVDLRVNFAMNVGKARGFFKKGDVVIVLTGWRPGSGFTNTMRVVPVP

HeLa [4] = experiment: Cell cycle arrest in human HeLa cells assessed as accumulation at S phase at 400 uM after 48 hrs by […]propidium iodide staining based flow cytometry (reference value: 25.41%); assay type: functional
[5] = Stability in human HeLa cells at 200 uM after 3 hrs by HPLC analysis (reference value: 100%); assay type: ADME, cell-based; settings: read-out: Stability
[6] = Stability in culture medium at 200 uM after 12 hrs by HPLC analysis (reference value: 100%); assay type: physicochemical; settings: read-out: Stability
HeLa [7] = experiment: Antiproliferative activity against human HeLa cells at 50 to 400 uM after 48 hrs by MTS assay; assay type: functional, cell-based
HeLa [8] = experiment: Cell cycle arrest in human HeLa cells assessed as accumulation at G1 phase at 400 uM after 48 hrs by […]propidium iodide staining based flow cytometry (reference value: 66.69%); assay type: functional
Pyruvate kinase PKM [9] = biological target: T1, Pyruvate kinase PKM; experiment: Binding affinity to PKM2 in human HeLa cell lysates at 200 uM after 6 hrs by silver staining based LC-MS/MS pull down analysis
Target sequence in this assay (P14618 2-531 limits assumed): as above

[10] = Stability in culture medium at 200 uM after 3 hrs by HPLC analysis (reference value: 100%); assay type: physicochemical; settings: read-out: Stability
Pyruvate kinase PKM [11] = biological target: T1, Pyruvate kinase PKM; experiment: Binding affinity to PKM2 in human MCF7 cells at 100 uM after 6 hrs by co-immunoprecipitation based Western blot analysis; assay type: cell-based
Target sequence in this assay (P14618 2-531 limits assumed): as above

[12] = Stability in human HeLa cells at 200 uM after 24 hrs by HPLC analysis (reference value: 100%); assay type: ADME, cell-based; settings: read-out: Stability
[13] = Stability in culture medium at 200 uM after 6 hrs by HPLC analysis (reference value: 100%); assay type: physicochemical; settings: read-out: Stability
Pyruvate kinase PKM [14] = biological target: T1, Pyruvate kinase PKM; experiment: Binding affinity to PKM2 in human HeLa cells at 100 uM after 6 hrs in presence of biotin by Western blot analysis; assay type: cell-based
Target sequence in this assay (P14618 2-531 limits assumed): as above

HeLa [15] = experiment: Cell cycle arrest in human HeLa cells assessed as accumulation at G2 phase at 400 uM after 48 hrs by […]propidium iodide staining based flow cytometry (reference value: 7.91%); assay type: functional
HeLa [16] = experiment: Cell cycle arrest in human HeLa cells assessed as accumulation at G1 phase at 200 uM after 48 hrs by […]propidium iodide staining based flow cytometry (reference value: 66.69%); assay type: functional
HeLa [17] = experiment: Cell cycle arrest in human HeLa cells assessed as accumulation at S phase at 200 uM after 48 hrs by […]propidium iodide staining based flow cytometry (reference value: 25.41%); assay type: functional
[18] = Stability in human HeLa cells at 200 uM after 12 hrs by HPLC analysis (reference value: 100%); assay type: ADME, cell-based; settings: read-out: Stability
HeLa [19] = experiment: Cell cycle arrest in human HeLa cells assessed as accumulation at G2 phase at 200 uM after 48 hrs by […]propidium iodide staining based flow cytometry (reference value: 7.91%); assay type: functional
[20] = Stability in culture medium at 200 uM after 24 hrs by HPLC analysis (reference value: 100%); assay type: physicochemical; settings: read-out: Stability
Pyruvate kinase PKM [21] = biological target: T1, Pyruvate kinase PKM; experiment: Binding affinity to PKM2 in human A549 cells at 100 uM after 6 hrs by co-immunoprecipitation based Western blot analysis; assay type: cell-based
Target sequence in this assay (P14618 2-531 limits assumed): as above

HeLa [22] = experiment: Induction of apoptosis in human HeLa cells at 200 to 400 uM after 48 hrs by Annexin V/propidium iodide staining based flow cytometry; assay type: functional, cell-based
[23] = Stability in human HeLa cells at 200 uM after 6 hrs by HPLC analysis (reference value: 100%); assay type: ADME, cell-based; settings: read-out: Stability
Pyruvate kinase PKM [24] = biological target: T1, Pyruvate kinase PKM; experiment: Binding affinity to PKM2 in human HeLa cells at 100 uM after 6 hrs by co-immunoprecipitation based Western blot analysis; assay type: cell-based
Target sequence in this assay (P14618 2-531 limits assumed): as above

HeLa [25] = experiment: Down regulation of CDK1 expression level in human HeLa cells at 200 to 400 uM by Western blot analysis; assay type: functional, cell-based
HeLa [26] = experiment: Induction of apoptosis in human HeLa cells assessed as increase in Bax/Bcl-2 expression level at 100 to 400 uM by Western blot analysis; assay type: functional, cell-based
HeLa [27] = experiment: Activation of MEK/ERK/PIN1 pathway in human HeLa cells assessed as increase in phosphorylated ERK1/2 expression at 100 uM after 2 to 8 hrs by Western blot analysis; assay type: cell-based
HeLa [28] = experiment: Induction of apoptosis in human HeLa cells assessed as increase in cleaved caspase 3 expression level at 100 to 400 uM by Western blot analysis; assay type: functional, cell-based
HeLa [29] = experiment: Effect on Glut1 expression level in human HeLa cells at 100 to 400 uM after 6 hrs by Western blot analysis; assay type: functional, cell-based
HeLa [30] = experiment: Activation of MEK/ERK/PIN1 pathway in human HeLa cells assessed as increase in MEK protein expression at 100 uM after 2 to 8 hrs by Western blot analysis; assay type: cell-based
HeLa [31] = experiment: Activation of MEK/ERK/PIN1 pathway in human HeLa cells assessed as increase in PIN1 expression at 100 uM after 2 to 8 hrs by Western blot analysis; assay type: cell-based
HeLa [32] = experiment: Down regulation of cyclin B expression level in human HeLa cells at 200 to 400 uM by Western blot analysis; assay type: functional, cell-based
L-lactate dehydrogenase = L-lactate dehydrogenase (Homo sapiens, UniProt V9HWB9); experiment: Inhibition of LDH (unknown origin) assessed as reduction in NADH oxidation at 200 uM after 30 mins; settings: 0.5 h

CC(C)=CC[C@@H](O)C1=CC(=O)c2c(O)ccc(O)c2C1=O [SHIKONIN]
pIC50 (Pyruvate kinase PKM [1]): 5.00 | pIC50 (Pyruvate kinase PKM [2]): 6.30 | Ratio IC50 (Homo sapiens): 20

O=C(O)[C@H]1O[C@@H](Oc2cc3oc(-c4ccc(O)cc4)cc(=O)c3c(O)c2O)[C@H](O)[C@@H](O)[C@@H]1O
inhibition (Pyruvate kinase PKM [3]): Dose-dependent effect

O=C(CCCC[C@@H]1SC[C@@H]2NC(=O)N[C@@H]21)NCCOCCOCCNC(=O)COc1ccc(-c2cc(=O)c3c(O)c(O)c(O)cc3o2)cc1
Activity (HeLa [4]): 36.92% | remaining at 3 h, 200 µM [5]: 98% | remaining at 12 h, 200 µM [6]: 54% | Activity (HeLa [7]): Active | Activity (HeLa [8]): 47.56% | Activity (Pyruvate kinase PKM [9]): Active | remaining at 3 h, 200 µM [10]: 89% | Activity (Pyruvate kinase PKM [11]): Active | remaining at 24 h, 200 µM [12]: 29% | remaining at 6 h, 200 µM [13]: 87% | Activity (Pyruvate kinase PKM [14]): inactive | Activity (HeLa [15]): 15.52% | Activity (HeLa [16]): 63.05% | Activity (HeLa [17]): 25.44% | remaining at 12 h, 200 µM [18]: 36% | Activity (HeLa [19]): 11.51% | remaining at 24 h, 200 µM [20]: 52% | Activity (Pyruvate kinase PKM [21]): Active | Activity (HeLa [22]): Active | remaining at 6 h, 200 µM [23]: 93% | Activity (Pyruvate kinase PKM [24]): Active

O=C1N[C@H]2[C@H](CS[C@H]2CCCCC(=O)Oc2ccc(-c3cc(=O)c4c(O)c(O)c(O)cc4o3)cc2)N1
remaining at 3 h, 200 µM [5]: 99% | remaining at 12 h, 200 µM [6]: 50% | Activity (HeLa [7]): Active | Activity (Pyruvate kinase PKM [9]): Active | remaining at 3 h, 200 µM [10]: 98% | remaining at 24 h, 200 µM [12]: 37% | remaining at 6 h, 200 µM [13]: 97% | remaining at 12 h, 200 µM [18]: 37% | remaining at 24 h, 200 µM [20]: 49% | remaining at 6 h, 200 µM [23]: 85%

NCCOCCOCCNC(=O)CCCC[C@@H]1SC[C@@H]2NC(=O)N[C@@H]21
Activity (Pyruvate kinase PKM [9]): Active

Cc1ccc(C)n1-c1ccc(O)c(C(=O)O)c1
pIC50 (Pyruvate kinase PKM [1]): 4.00 | pIC50 (Pyruvate kinase PKM [2]): 4.90 | Ratio IC50 (Homo sapiens): 8

O=c1cc(-c2ccc(O)cc2)oc2cc(O)c(O)c(O)c12 [SCUTELLAREIN]
Activity (HeLa [4]): 31.89% | Activity (HeLa [25]): Active | inhibition (Pyruvate kinase PKM [3]): Dose-dependent effect | Activity (HeLa [26]): Active | Activity (HeLa [7]): Active | Activity (HeLa [8]): 51.91% | pIC50 (Pyruvate kinase PKM [1]): 4.00 | Activity (HeLa [27]): Active | Activity (HeLa [28]): Active | pIC50 (Pyruvate kinase PKM [2]): 4.90 | Activity (HeLa [15]): 16.19% | Activity (HeLa [16]): 62.11% | Activity (HeLa [17]): 25.34% | Activity (HeLa [19]): 12.55% | Ratio IC50 (Homo sapiens): 8 | Activity (HeLa [29]): inactive | Activity (HeLa [30]): Active | Activity (HeLa [22]): Active | Activity (HeLa [31]): Active | Activity (HeLa [32]): Active | inhibition (INH) (L-lactate dehydrogenase): Not Active
